The assay concerns DU-145 multicell spheroids with HUVEC/MSC, viability. As to the kind of experiment: Anticancer human tumor DU-145 cell line growth inhibition [IpAb].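 For all read-outs here: spheroids exposed to agents for seven days before measurement.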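 For viability, T/C: percent of DMSO vehicle control viability so 100% = untreated level.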 The conditions noted are these: for viability, T/C: stronger effect = lower value. In a few lines: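 Combinations with ipatasertib or abemaciclib were tested on tumour spheroids holding HUVEC (25%) and MSC (15%) alongside 60% malignant cells. Top concentration was at or near clinical Cmax (10 microM if undefined), descending in half-log steps.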

The source of these data is PubChem BioAssay AID2060335 (Molecular Pharmacology Branch, DTP, NCI, 2025).

pIC50: −log10 of the molar value. Where “and” joins values, the source holds several entries; their conditions need not be identical. Identical values can stand only once.

Turning to `C=CC(=O)N1CCN(c2nc(=O)n(-c3c(C)ccnc3C(C)C)c3nc(-c4c(O)cccc4F)c(F)cc23)C(C)C1` (stereo not given) + CC(C)NCC(C(=O)N1CCN(c2ncnc3c2C(C)CC3O)CC1)c1ccc(Cl)cc1, the negative logarithm of the IC50 (pIC50) is 5.06 (curve of first compound, second compound 0.1 µM); 5.38 (curve of first compound, second compound 0.316 µM); over 7.50 (curve of first compound, second compound 1 µM); over 7.50 (curve of first compound, second compound 3.16 µM); over 7.50 (curve of first compound, second compound 10 µM). The viability, T/C is 81.3% (second compound 0.1 µM, first compound 0.0316 µM); 87.7% (second compound 0.1 µM, first compound 0.1 µM); 86.1% (second compound 0.1 µM, first compound 0.316 µM); 92% (second compound 0.1 µM, first compound 1 µM); 82.9% (second compound 0.1 µM, first compound 3.16 µM); 45.5% (second compound 0.1 µM, first compound 10 µM). Further, the viability, T/C runs as follows: (second compound 0.316 µM, first compound 0.0316 µM) 53.9%; (second compound 0.316 µM, first compound 0.1 µM) 55%; (second compound 0.316 µM, first compound 0.316 µM) 59.1%; (second compound 0.316 µM, first compound 1 µM) 59.2%; (second compound 0.316 µM, first compound 3.16 µM) 52.9%; (second compound 0.316 µM, first compound 10 µM) 37.8%. Also, the viability, T/C by setting is: (second compound 1 µM, first compound 0.0316 µM) 34%; (second compound 1 µM, first compound 0.1 µM) 35.5%; (second compound 1 µM, first compound 0.316 µM) 37.6%; (second compound 1 µM, first compound 1 µM) 37.4%; (second compound 1 µM, first compound 3.16 µM) 34.5%; (second compound 1 µM, first compound 10 µM) 28.3%. Further, the viability, T/C reads like this: (second compound 3.16 µM, first compound 0.0316 µM) 22.4%; (second compound 3.16 µM, first compound 0.1 µM) 21.9%; (second compound 3.16 µM, first compound 0.316 µM) 27.5%; (second compound 3.16 µM, first compound 1 µM) 24.4%; (second compound 3.16 µM, first compound 3.16 µM) 24.5%; (second compound 3.16 µM, first compound 10 µM) 20.7%. The viability, T/C (second compound 10 µM, first compound 0.0316 µM) was 19.5%; the viability, T/C (second compound 10 µM, first compound 0.1 µM) is 19.3%; the viability, T/C (second compound 10 µM, first compound 0.316 µM) was 18.5%; the viability, T/C (second compound 10 µM, first compound 1 µM) is 21.6%; the viability, T/C (second compound 10 µM, first compound 3.16 µM) was 19.9%; the viability, T/C (second compound 10 µM, first compound 10 µM) is 17.1%.

In the case of `C=CCn1c(=O)c2cnc(Nc3ccc(N4CCN(C)CC4)cc3)nc2n1-c1cccc(C(C)(C)O)n1`, the viability, T/C was 92.5% and 92.3% (compound 0.0316 µM); 59.8% and 56.2% (compound 0.1 µM); 23.2% and 29.1% (compound 0.316 µM); 18.4% and 24.8% (compound 1 µM); 11.1% and 15.6% (compound 3.16 µM); 9.63% and 14.2% (compound 10 µM). Further, the negative-log IC50 (pIC50) (curve of compound) was 6.87 and 6.89.

For the compound `CC(C)(C)c1cnc(CSc2cnc(NC(=O)C3CCNCC3)s2)o1`, the viability, T/C is, setting by setting: (compound 0.00949 µM) 110% and 106%; (compound 0.03 µM) 105% and 110%; (compound 0.0949 µM) 71.5% and 59.3%; (compound 0.3 µM) 12.9% and 9.3%; (compound 0.949 µM) 7.58% and 6.45%; (compound 3 µM) 5.4% and 5.44%. Moreover, the negative logarithm of the IC50 (pIC50) (curve of compound) was 6.84 and 6.93.

Consider `CC(C)NCC(C(=O)N1CCN(c2ncnc3c2C(C)CC3O)CC1)c1ccc(Cl)cc1` (stereo not given), for which the viability, T/C by setting is: (compound 0.1 µM) 81.1% [middle of 13 runs]; (compound 0.316 µM) 53.8% [middle of 13 runs]; (compound 1 µM) 30.9% [middle of 13 runs]; (compound 3.16 µM) 21.7% [middle of 13 runs]; (compound 10 µM) 17.5% [middle of 13 runs]. Besides, for the setting “compound alone, run of 06/01/2021”, the half-inhibitory concentration (IC50) is 381 nM [middle of 13 runs].

As usually defined, the pIC50 is −log10 of the IC50, conventionally taken in molar units. Usually viability, T/C stands for the ratio of treated to control. As a reminder, the IC50 is the point on the concentration scale where inhibition reaches its midpoint.
